Data taken from paper PMC11296140, “Cardenolides in the defensive fluid of adult large milkweed bugs have differential potency on vertebrate and invertebrate predator Na^+/K^+-ATPases” (Royal Society Open Science, 2024).

What was measured:
[1] = tested on: O. fasciatus target site Na^+/K^+-ATPase; conditions: cited from earlier work
[2] = biological target: giant Asian mantid Na^+/K^+-ATPase; assay: Na+/K+-ATPase inhibition assay, giant Asian mantid neural tissue lysate; format: biochemical, Hierodula membranacea; conditions: for IC50: giant Asian mantid enzyme, toxicity criteria of Agrawal et al.; for potency compared with the porcine enzyme (in words): giant Asian mantid vs pig, log10 IC50, Tukey post hoc
Protocol: Hierodula membranacea were obtained from M&M Wust—Mantids and More (Muhlheim am Main, Germany). Twenty-five individuals were obtained at the L4 stage and reared in individually double-ventilated boxes (19 × 19 × 19 cm). We provided them with greenbottle fly pupae as a food source, twice per week (two pupae during the nymph stages and three when they reached the adult stage). Mantids were sprayed with water every 2 days for hydration. The mantids were kept in an incubator (Snijders Scientific premium, Tilburg, The Netherlands, with an Imago 500 JUMO controller, Fulda, Germany) at 28°C and 70% humidity with an 18 L : 6 D cycle and a temperature of 18°C at night.
(§1) Preparations of Na^+/K^+-ATPases were obtained by homogenization of dissected brains (T. castanotis, zebra finch, and H. membranacea, giant Asian mantid), from commercially obtained enzyme (Sus scrofa domesticus, domestic pig), and expression of ATP1A1 and ATP1B1 subunits of the Na^+/K^+-ATPase of the black-headed grosbeak in insect Sf9 cells (Invitrogen).
(§2) We sliced and weighed 5 mg from three different zebra finch brains and dissected the head capsule of five female giant Asian mantids to obtain the central body with intact optic lobes. Neural tissues were transferred to a 1 ml glass grinder (Wheaton Dounce tissue grinder, 1 ml, no. 357538) and homogenized in 500 μl distilled water. Zebra finch homogenates were transferred to a 50 ml Falcon tube on ice and resuspended with 15 ml resuspension buffer (0.25 M sucrose, 2 mM ethylenediaminetetraacetic acid and 25 mM HEPES/Tris; pH 7.0). Samples were sonicated at 85 W (Fisherbrand Model 120 Sonic Dismembrator, no. 12337338) for three 45 s intervals at 0°C, followed by centrifugation for 30 min at 10 000g (Sigma 3–18K, no. 10290) at 4°C to remove debris. The supernatant was collected and further centrifuged for 60 min at 100 000g at 4°C (Optima Max-XP tabletop ultracentrifuge, no. 393315) to isolate the membrane fraction. The pelleted membranes were washed twice and resuspended in 1 ml Milli-Q water (Milli-Q direct water purification system, Merck, no. C85358) and stored at −20°C. Giant Asian mantid homogenates were frozen to −80°C and then freeze-dried overnight and then resuspended in 1800 μl distilled water. Each sample was divided into aliquots of 600 μl and sonicated twice in an ice water bath (Bandelin Sonorex, no. Z659584) for 5 min. Samples were centrifuged at 3000 r.p.m. for 5 min and used to perform functional assays.
(§3) The inhibitory effects of increasing concentrations of four cardenolides (ouabain, glucopyranosyl frugoside, frugoside and gofruside) on the black-headed grosbeak, zebra finch and giant Asian mantids were determined by photometric measurement of inorganic phosphate released from enzymatic ATP hydrolysis while subtracting the background ATPase activity following Petschenka et al. (see the electronic supplementary material, method S2e). The assessment of the inhibitory impact of glucopyranosyl calotropin was limited to the black-headed grosbeak and zebra finch species. This stemmed from the restricted availability of the compound, which only permitted testing on two predator pumps. The inhibitory effects of the five compounds for the porcine ATPase were taken from Rubiano-Buitrago et al. for comparison. All assays were run in three biological replicates, and the average of two technical replicates of each biological replicate was used for subsequent statistical analyses. Raw data are available in the data repository.
(§4) For cardenolide inhibition, we converted the calibrated absorbance values to the percentage of non-inhibited Na^+/K^+-ATPase activity based on measurements from the control wells. We fitted inhibition curves by nonlinear fitting using a four-parameter logistic curve, with the top and bottom asymptotes set to 100 and 0, respectively, using the nlsLM function of the minipack.lm library in R [47]. […]

[3] = tested on: black-headed grosbeak Na^+/K^+-ATPase; assay: Na+/K+-ATPase inhibition assay, recombinant black-headed grosbeak enzyme expressed in Sf9 cells; format: biochemical, Pheucticus melanocephalus; conditions: for IC50: black-headed grosbeak enzyme, toxicity criteria of Agrawal et al.; for times less inhibitory than for pig: black-headed grosbeak vs porcine enzyme, IC50 fold difference
Excerpt: Pheucticus melanocephalus (black-headed grosbeak) ATPA1 and ATPB1 genes were synthesised (GeneArt; Invitrogen), codon optimised for Spodoptera frugiperda and cloned by GeneArt (Invitrogen) in pFastBac Dual plasmid with ATP1B1 under p10 promoter and ATP1A1 under PPH promoter. Final plasmids were verified by sequencing (accession number 196465).
as §1
Recombinant Na^+/K^+-ATPases were expressed after infection of Sf9 cells with P0 virus stock following the optimized baculovirus expression system described by Scholz and Suppmann. The cells were pelleted by centrifugation, resuspended and sonicated to disrupt membranes and further centrifuged to remove cell debris. Cell membranes were pelleted by ultracentrifugation of the supernatant and finally resuspended in Milli-Q water (electronic supplementary material, method S2). Prior to the Na^+/K^+-ATPase inhibition assay, the black-headed grosbeak protein was verified by SDS–PAGE/Western blotting following the methods of Mohammadi et al. (see the electronic supplementary material, figure S1) and quantified by ELISA (see the electronic supplementary material, method S2d).
as §3
For cardenolide inhibition, we converted the calibrated absorbance values to the percentage of non-inhibited Na^+/K^+-ATPase activity based on measurements from the control wells. We fitted inhibition curves by nonlinear fitting using a four-parameter logistic curve, with the top and bottom asymptotes set to 100 and 0, respectively, using the nlsLM function of the minipack.lm library in R [47]. From this we calculated the half maximal inhibitory concentration (IC50) values for each biological replicate. We compared the log10 IC50 values of individual cardenolides for each Na^+/K^+-ATPase enzyme using a linear model, testing the interaction between predator enzyme and cardenolide, and compared the inhibitory capacity of each compound pairwise using Tukey’s post hoc test. We calculated the fold differences between the IC50 values of individual cardenolides for black-headed grosbeak, zebra finch and giant Asian mantid versus the IC50 values on the porcine enzyme.

[4] = biological target: zebra finch Na^+/K^+-ATPase; assay: Na+/K+-ATPase inhibition assay, zebra finch brain lysate; format: biochemical, Taeniopygia castanotis; conditions: for IC50: zebra finch enzyme, toxicity criteria of Agrawal et al.
Protocol: Taeniopygia castanotis (zebra finch) brain tissues were obtained from a breeding colony at the University of St Andrews, UK, under Home Office licence 70/8159. Individual brains were dissected and flash-frozen on dry ice before being shipped from St Andrews to the Max Planck Institute for Chemical Ecology, Jena, Germany, where they were kept at −80°C until used in the assays.
as §1, §2, §3
as §4, with “[47]. From this we calculated the half maximal inhibitory concentration (IC50) values for each biological replicate.” for “[47].”

[5] = zebra finch vs porcine enzyme, IC50 fold difference

Compound | potency towards the bug's own target site (in words) [1] | IC50 [2] | potency compared with the porcine enzyme (in words) [2] | IC50 [3] | times less inhibitory than for pig [3] | IC50 [4] | times less inhibitory than for pig [4, 5] | times less inhibitory than for pig ([2]; giant Asian mantid vs porcine enzyme, IC50 fold difference) | inhibition of the enzyme (in words) ([4]; sensitive vertebrate enzymes) | times more inhibitory than to pig ([2]; giant Asian mantid vs porcine enzyme, IC50 fold difference, not significant at alpha 0.05) | potency compared with the porcine enzyme (in words) ([3]; black-headed grosbeak vs pig, log10 IC50, Tukey post hoc) | times more inhibitory than to pig [4, 5] | inhibition of the enzyme (in words) ([3]; putatively resistant vertebrate predator)
C[C@H]1OC(O[C@H]2CC[C@@]3(CO)[C@H](CC[C@@H]4[C@@H]3CC[C@]3(C)[C@@H](C5=CC(=O)OC5)CC[C@]43O)C2)[C@H](O)[C@H](O)[C@@H]1O (stereo partly drawn) [frugoside] | the most inhibitory | < 1000 nM | not significantly different in potency | < 10000 nM | 6.8 times | < 1000 nM | 2.6 times |  |  |  |  |  | 
C[C@@H]1O[C@@H](O[C@H]2C[C@@H](O)[C@]3(CO)[C@H]4[C@H](O)C[C@]5(C)[C@@H](C6=CC(=O)OC6)CC[C@]5(O)[C@@H]4CC[C@]3(O)C2)[C@H](O)[C@H](O)[C@H]1O [ouabain, reference compound] |  |  |  |  | 18.9 times |  | 6.8 times | 4.3 times |  |  |  |  | 
glucopyranosyl calotropin |  |  |  |  | 15.1 times |  | 3.4 times |  | effective inhibitor |  |  |  | 
glucopyranosyl frugoside |  |  |  | < 10000 nM |  | < 1000 nM |  |  |  | 2.3 times | not significantly different in potency | 28.3 times | 
gofruside | among the weakest inhibitors | < 1000 nM | did not differ in inhibitory potential |  | 352.5 times |  | 12.7 times |  |  |  |  |  | weakest inhibitor
